For one assay, the system named is MALME-3M. The arrangement: method as in PMID 32115728, PMID 32959865. The following applies: cited from earlier work.
The test system of a further assay is HepG2. On the set-up: method as in PMID 32115728, PMID 32959865. The following applies: antiproliferation; cited from earlier work.
The test system of assay [1] is active caspase-3 in Colo 205 cells. Nature of the assay: Caspase-3 ELISA. The class given is cell-based, human. The following applies: Colo_205, treated at IC50. The source says: Among the death proteases, the caspases family of cysteine-dependent aspartate-directed proteases is significant. There are multiple levels where caspase activation and activity are regulated.[43] Caspases are activated during apoptosis, which eventually results in cell death by deactivating a number of signals.[44] One of the crucial survival signals, EGFR, may be the target of caspase activation to ensure the completion of apoptosis.[45] Additionally, it has been reported that activating caspase-3 through COX-2 inhibition enhances apoptosis.[40] Therefore, the impact of the novel compounds on the level of caspase 3 was examined.
(1) Into the antibody coated wells add 100 μl of standard diluent buffer excepts wells wich detected to be the chromogen blank, then add 100 μl. […] (10) Decant liquid from wells then wash, (11) pipette 100 μl of chromogen substrate to all wells, The well fluid will start to become blue. (12) 30 minutes should be spent incubating at room temperature in the dark. (13) To each well, add 100 μl of stop solution. To mix, lightly tap the plate's edge. The well solution should transform from blue to yellow. (14) Read the absorbance of each well using a microtiter plate reader at 450 nm. (15) Draw the standard curve using a curve fitting program. (16) The standard curve can be used to determine the concentrations for unknown samples and controls.[55]
Background: An ELISA detects its analyte on a solid surface through an enzyme-linked reagent.

On the set-up of assay [2]: method as in PMID 26764192, PMID 22249410, PMID 21414695. To be noted: cited from earlier work.

With `CC(C)CSc1nc(Nc2ccc(C(=O)O)cc2)c(C#N)c(-c2ccccc2)n1` [F], the GI value in the assay on MALME-3M is listed as 152.04%.
The IC50 is the concentration that inhibits the measured activity by half. `C=CCSc1nc(Nc2ccccc2)c(C#N)c(-c2ccccc2)n1` [E]: in the assay with HepG2, the concentration for half-maximal inhibition (IC50) is 3.56 µM.
Consider `CN[C@@H]1C[C@H]2O[C@@](C)([C@@H]1OC)n1c3ccccc3c3c4c(c5c6ccccc6n2c5c31)C(=O)NC4` [Staurosporine, reference compound], for which the “Caspase 3” value in assay [1] amounted to 766.2 ± 10.4 pg·mL.
Turning to `COc1ccc(-c2nc(-c3ccc(Cl)cc3)[nH]c(=O)c2C#N)cc1` [I], the “antinociceptive activity compared to control” value in assay [2] is “more than 88%”.

These data come from publication PMC10620772, “Design, synthesis, and biological evaluation of new pyrimidine-5-carbonitrile derivatives as novel anti-cancer, dual EGFR^WT/COX-2 inhibitors with docking studies” (RSC Advances, 2023).
